Reference: ChEMBL document CHEMBL6078616, “Seven-membered N-heterocycles as approved drugs and promising leads in medicinal chemistry as well as the metal-free domino access to their scaffolds” (Eur J Med Chem, 2024)

Columns and labels:
HeLa = experiment: cells; details: Homo sapiens
Description: Antiproliferative activity against human HeLa cells assessed as reduction in cell viability

[1] = molecular target: T1, Protein deacetylase HDAC6 (Homo sapiens, UniProt Q9UBN7); experiment: Inhibition of HDAC6 (unknown origin)
T1 sequence (Q9UBN7 whole entry): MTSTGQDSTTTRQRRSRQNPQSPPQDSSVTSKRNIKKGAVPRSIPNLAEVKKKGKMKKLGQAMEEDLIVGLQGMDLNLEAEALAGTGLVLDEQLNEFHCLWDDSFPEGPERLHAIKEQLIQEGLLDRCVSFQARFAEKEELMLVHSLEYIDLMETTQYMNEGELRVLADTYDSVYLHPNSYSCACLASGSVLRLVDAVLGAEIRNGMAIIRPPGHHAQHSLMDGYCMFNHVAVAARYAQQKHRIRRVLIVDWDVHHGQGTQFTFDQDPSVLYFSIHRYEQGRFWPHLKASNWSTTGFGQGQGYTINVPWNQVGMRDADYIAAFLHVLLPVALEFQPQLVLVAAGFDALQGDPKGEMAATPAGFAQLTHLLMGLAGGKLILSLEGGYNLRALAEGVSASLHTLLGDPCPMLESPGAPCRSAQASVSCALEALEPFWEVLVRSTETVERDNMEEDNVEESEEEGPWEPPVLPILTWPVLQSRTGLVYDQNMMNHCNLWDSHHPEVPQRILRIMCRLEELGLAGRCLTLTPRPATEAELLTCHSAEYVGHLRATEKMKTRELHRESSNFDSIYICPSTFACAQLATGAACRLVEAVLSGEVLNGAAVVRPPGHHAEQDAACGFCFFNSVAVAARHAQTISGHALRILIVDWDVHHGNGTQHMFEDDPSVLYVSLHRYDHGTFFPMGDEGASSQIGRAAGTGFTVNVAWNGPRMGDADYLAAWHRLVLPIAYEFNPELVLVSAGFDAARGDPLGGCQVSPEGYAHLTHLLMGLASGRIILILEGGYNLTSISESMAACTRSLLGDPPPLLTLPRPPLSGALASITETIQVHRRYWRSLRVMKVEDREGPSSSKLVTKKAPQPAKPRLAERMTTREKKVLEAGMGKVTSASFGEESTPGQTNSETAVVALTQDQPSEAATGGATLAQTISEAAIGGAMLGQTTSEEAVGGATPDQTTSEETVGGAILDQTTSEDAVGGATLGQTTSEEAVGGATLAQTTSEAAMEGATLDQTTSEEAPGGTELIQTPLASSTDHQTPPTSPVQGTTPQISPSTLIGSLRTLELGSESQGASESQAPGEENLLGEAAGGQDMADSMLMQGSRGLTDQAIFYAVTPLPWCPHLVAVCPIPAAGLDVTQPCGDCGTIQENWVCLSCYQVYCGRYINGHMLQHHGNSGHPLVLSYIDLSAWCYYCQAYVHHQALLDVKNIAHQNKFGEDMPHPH

[2] = Cytotoxicity against human THP-1 cells assessed as reduction in cell viability; format: toxicity, cell-based
Trypanosoma cruzi = experiment: Antitrypanosomal activity against Trypanosoma cruzi Y strain trypomastigotes […] in African green monkey Vero cells assessed as inhibition of parasite growth incubated for 24 hrs by Neubauer chamber based analysis; format: functional, organism-based
[3] = Cytotoxicity against African green monkey Vero cells assessed as reduction in cell viability incubated for 72 hrs by MTT assay; format: toxicity, cell-based; details: chlorocebus sabaeus
Leishmania infantum = experiment: Antileishmanial activity against Leishmania infantum promastigote assessed as reduction in parasite growth after 72 hrs by MTT assay; format: functional, organism-based
[4] = molecular target: Sigma intracellular receptor 2 (Homo sapiens, UniProt Q5BJF2); experiment: Binding affinity to TMEM97 (unknown origin) assessed as inhibition constant
Sequence of Sigma intracellular receptor 2 (Q5BJF2 whole entry): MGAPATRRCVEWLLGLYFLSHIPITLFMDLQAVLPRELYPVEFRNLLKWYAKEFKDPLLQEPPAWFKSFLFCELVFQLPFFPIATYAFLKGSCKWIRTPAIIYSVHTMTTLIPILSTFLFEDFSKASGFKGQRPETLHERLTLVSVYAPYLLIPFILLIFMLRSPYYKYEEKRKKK

Histone deacetylase 5 = Histone deacetylase 5 (Homo sapiens, UniProt Q9UQL6); experiment: Inhibition of HDAC5 (unknown origin)
Sequence of Histone deacetylase 5 (Q9UQL6 whole entry): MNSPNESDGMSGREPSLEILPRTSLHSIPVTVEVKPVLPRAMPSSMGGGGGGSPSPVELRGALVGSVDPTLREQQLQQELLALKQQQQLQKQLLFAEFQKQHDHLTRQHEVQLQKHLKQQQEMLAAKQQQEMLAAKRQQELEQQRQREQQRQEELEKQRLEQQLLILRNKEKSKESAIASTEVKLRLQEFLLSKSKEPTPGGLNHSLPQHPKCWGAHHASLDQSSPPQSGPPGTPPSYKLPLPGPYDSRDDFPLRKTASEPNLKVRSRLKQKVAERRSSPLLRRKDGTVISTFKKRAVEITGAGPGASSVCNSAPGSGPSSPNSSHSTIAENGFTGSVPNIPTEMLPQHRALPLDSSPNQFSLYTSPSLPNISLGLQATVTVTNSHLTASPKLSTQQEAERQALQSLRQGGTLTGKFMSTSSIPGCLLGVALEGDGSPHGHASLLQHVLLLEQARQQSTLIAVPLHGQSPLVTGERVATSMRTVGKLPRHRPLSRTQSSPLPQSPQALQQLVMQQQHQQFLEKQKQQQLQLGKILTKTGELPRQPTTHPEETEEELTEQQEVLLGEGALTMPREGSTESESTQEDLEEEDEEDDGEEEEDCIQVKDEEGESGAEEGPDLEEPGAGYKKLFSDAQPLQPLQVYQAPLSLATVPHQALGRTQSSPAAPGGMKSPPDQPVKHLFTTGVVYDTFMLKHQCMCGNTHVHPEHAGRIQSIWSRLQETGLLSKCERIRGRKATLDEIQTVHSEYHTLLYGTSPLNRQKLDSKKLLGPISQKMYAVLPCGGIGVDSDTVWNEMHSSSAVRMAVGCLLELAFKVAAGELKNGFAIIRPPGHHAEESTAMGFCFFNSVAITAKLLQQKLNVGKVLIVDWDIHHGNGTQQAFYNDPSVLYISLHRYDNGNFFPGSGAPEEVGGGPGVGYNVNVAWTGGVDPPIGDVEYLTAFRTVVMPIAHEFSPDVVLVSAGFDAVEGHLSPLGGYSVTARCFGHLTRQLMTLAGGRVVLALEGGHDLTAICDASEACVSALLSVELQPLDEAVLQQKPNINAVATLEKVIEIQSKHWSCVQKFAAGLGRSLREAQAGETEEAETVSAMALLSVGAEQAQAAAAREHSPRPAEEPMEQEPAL

Histone deacetylase 3 = Histone deacetylase 3 (Homo sapiens, UniProt O15379); experiment: Inhibition of HDAC3 (unknown origin)
Sequence of Histone deacetylase 3 (O15379 whole entry): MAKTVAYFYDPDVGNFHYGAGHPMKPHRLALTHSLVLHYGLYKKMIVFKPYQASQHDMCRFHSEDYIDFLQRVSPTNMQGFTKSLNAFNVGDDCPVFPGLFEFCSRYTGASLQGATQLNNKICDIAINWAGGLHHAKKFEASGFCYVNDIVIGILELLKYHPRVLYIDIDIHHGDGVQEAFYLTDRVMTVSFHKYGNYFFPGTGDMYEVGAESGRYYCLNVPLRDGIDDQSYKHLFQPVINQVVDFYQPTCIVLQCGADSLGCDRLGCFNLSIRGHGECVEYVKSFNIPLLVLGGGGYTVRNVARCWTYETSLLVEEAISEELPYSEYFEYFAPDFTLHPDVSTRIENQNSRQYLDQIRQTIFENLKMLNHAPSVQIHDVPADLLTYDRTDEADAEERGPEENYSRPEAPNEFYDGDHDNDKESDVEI

Histone deacetylase 11 = molecular target: T2, Histone deacetylase 11 (Homo sapiens, UniProt Q96DB2); experiment: Inhibition of HDAC11 (unknown origin)
T2 sequence (Q96DB2 whole entry): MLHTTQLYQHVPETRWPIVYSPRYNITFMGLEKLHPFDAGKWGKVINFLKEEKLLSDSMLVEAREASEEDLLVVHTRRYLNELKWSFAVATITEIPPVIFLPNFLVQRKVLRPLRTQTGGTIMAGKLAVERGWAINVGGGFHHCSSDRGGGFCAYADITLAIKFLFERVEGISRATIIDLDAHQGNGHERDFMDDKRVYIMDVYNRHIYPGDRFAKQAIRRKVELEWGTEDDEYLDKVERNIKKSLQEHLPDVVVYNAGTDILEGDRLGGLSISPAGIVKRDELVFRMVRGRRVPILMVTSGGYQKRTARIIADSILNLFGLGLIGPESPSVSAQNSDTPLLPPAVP

Histone deacetylase 8 = molecular target: T3, Histone deacetylase 8 (Homo sapiens, UniProt Q9BY41); experiment: Inhibition of HDAC8 (unknown origin)
T3 sequence (Q9BY41 whole entry): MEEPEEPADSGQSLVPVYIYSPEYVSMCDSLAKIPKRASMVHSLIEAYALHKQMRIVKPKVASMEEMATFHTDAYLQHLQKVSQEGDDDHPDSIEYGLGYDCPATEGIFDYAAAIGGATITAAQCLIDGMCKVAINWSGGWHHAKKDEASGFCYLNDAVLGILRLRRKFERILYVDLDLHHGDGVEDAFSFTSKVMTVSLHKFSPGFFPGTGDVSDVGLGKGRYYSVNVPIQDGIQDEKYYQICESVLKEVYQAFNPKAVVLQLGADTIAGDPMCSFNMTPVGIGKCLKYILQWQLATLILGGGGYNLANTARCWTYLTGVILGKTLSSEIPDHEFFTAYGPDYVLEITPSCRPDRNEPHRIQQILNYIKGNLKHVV

Histone deacetylase 4 = Histone deacetylase 4 (Homo sapiens, UniProt P56524); experiment: Inhibition of HDAC4 (unknown origin)
Sequence of Histone deacetylase 4 (P56524 whole entry): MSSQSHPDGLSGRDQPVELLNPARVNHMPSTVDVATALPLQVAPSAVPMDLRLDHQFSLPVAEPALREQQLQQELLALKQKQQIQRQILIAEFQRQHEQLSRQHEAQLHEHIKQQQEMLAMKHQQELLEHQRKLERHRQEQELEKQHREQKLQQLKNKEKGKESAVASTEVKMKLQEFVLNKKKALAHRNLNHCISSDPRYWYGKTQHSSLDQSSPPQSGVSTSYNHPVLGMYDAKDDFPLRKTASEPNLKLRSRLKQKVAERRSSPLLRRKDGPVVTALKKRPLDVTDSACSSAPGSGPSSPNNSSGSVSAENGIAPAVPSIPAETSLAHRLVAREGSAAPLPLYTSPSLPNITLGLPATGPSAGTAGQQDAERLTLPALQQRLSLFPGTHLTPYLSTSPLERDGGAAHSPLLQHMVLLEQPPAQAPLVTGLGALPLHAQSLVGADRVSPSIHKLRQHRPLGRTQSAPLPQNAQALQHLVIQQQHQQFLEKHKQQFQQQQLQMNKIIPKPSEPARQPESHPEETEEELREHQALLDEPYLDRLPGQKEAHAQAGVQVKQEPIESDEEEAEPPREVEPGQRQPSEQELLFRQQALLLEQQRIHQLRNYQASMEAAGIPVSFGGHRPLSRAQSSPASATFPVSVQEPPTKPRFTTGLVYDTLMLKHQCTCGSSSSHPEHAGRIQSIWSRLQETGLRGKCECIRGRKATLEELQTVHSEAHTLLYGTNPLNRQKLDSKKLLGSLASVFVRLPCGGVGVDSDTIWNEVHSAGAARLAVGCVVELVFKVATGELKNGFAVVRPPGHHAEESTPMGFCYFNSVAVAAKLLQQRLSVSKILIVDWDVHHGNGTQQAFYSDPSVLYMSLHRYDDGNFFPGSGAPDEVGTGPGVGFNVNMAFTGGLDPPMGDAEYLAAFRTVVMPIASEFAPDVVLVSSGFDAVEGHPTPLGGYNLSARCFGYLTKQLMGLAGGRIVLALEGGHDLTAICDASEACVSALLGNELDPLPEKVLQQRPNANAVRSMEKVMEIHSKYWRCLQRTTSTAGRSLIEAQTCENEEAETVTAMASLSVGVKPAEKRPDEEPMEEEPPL

[5] = molecular target: T4, Polyamine deacetylase HDAC10 (Homo sapiens, UniProt Q969S8); experiment: Inhibition of HDAC10 (unknown origin)
T4 sequence (Q969S8 whole entry): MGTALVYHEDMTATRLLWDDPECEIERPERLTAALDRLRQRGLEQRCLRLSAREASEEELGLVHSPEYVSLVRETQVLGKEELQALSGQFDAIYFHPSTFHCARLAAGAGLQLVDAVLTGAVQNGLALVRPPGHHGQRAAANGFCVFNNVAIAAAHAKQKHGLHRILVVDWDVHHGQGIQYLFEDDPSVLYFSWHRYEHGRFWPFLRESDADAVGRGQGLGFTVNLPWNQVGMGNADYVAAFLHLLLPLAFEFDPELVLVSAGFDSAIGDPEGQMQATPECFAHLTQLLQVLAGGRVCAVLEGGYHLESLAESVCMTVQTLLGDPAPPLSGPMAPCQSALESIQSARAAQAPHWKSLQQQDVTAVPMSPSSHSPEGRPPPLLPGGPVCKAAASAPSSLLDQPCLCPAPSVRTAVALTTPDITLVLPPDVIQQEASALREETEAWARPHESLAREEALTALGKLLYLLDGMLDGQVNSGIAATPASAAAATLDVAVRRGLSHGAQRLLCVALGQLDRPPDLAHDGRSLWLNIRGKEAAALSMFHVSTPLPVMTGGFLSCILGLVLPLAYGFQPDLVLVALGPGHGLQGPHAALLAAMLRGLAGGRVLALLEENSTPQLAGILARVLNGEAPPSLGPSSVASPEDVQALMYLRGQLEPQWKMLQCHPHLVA

Histone deacetylase 9 = Histone deacetylase 9 (Homo sapiens, UniProt Q9UKV0); experiment: Inhibition of HDAC9 (unknown origin)
Sequence of Histone deacetylase 9 (Q9UKV0 whole entry): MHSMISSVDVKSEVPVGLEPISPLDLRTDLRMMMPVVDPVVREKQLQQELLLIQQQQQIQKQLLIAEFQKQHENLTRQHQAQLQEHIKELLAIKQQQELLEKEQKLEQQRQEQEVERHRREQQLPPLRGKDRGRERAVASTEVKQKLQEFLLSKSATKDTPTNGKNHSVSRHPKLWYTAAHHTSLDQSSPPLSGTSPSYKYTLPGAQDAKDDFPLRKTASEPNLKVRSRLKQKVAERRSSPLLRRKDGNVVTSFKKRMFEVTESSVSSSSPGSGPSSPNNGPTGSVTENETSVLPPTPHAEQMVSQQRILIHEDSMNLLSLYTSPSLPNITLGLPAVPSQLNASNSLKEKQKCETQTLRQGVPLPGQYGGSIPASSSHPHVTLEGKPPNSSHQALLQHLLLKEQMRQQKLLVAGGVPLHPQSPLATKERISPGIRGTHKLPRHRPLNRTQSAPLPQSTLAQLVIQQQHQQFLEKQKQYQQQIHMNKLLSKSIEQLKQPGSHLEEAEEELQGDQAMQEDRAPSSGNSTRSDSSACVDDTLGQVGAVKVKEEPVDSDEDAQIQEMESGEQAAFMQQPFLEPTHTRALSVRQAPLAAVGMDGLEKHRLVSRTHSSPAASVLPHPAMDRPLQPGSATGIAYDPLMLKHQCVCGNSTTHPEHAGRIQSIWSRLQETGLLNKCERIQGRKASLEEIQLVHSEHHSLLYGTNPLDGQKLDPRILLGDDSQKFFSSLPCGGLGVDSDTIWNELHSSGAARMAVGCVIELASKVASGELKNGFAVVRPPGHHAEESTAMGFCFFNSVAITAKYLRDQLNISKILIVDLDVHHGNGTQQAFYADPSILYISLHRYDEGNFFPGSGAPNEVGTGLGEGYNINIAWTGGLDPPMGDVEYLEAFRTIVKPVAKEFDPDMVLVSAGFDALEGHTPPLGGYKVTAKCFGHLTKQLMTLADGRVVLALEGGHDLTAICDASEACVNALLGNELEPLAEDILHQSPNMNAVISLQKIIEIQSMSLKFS

Histone deacetylase 1 = Histone deacetylase 1 (Homo sapiens, UniProt Q13547); experiment: Inhibition of HDAC1 (unknown origin)
Sequence of Histone deacetylase 1 (Q13547 whole entry): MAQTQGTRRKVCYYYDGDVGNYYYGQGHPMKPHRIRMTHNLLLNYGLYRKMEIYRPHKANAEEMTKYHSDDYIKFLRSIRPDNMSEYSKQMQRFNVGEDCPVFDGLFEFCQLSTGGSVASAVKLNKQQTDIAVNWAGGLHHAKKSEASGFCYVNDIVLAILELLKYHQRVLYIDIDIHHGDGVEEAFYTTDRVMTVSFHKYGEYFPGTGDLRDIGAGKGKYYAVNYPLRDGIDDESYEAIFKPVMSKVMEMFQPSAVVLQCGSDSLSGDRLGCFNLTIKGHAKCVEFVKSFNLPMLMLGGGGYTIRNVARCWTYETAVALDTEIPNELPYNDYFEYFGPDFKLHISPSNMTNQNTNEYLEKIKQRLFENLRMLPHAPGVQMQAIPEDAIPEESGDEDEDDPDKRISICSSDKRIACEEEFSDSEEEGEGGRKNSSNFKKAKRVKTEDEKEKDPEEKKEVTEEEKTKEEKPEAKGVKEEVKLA

IC50 (Trypanosoma cruzi) [µM] | Compound | CC50 [2] [µM] | CC50 at 72 h [3] [µM] | IC50 (Leishmania infantum) [µM] | other results
– | O=C1Cc2cnn(-c3cc(Cl)cc(Cl)c3)c2-c2ccccc2N1 | – | – | – | IC50 (HeLa): 1.32 µM
– | O=C(NO)c1ccc(CN2c3ccccc3S(=O)(=O)C[C@H]3CCCC[C@H]32)cc1 | – | – | – | IC50 [1]: 0.1 µM
– | O=C1Cc2cnn(-c3cccc(Br)c3)c2-c2ccccc2N1 | – | – | – | IC50 (HeLa): 1.32 µM
11.9 | COc1cccc([C@@H]2C[C@H]3Cc4cc(Br)c5ccccc5c4N2O3)c1 | > 1520 | > 1520 | 40.1 | –
3.3 | O[C@@H]1Cc2cc(Br)c3ccccc3c2N[C@H](c2cccc(Cl)c2Cl)C1 | 59.8 | 40.1 | 11.8 | –
8.3 | Brc1ccc([C@@H]2C[C@H]3Cc4ccc5ccccc5c4N2O3)s1 | > 809 | > 809 | 21.6 | –
– | FC(F)(F)c1ccc(-c2ccc3c(c2)C2CC3CCN2C2CCCC2)cc1 (centres undefined) | – | – | – | Ki [4]: 0.061 µM
– | OCCCN1CCC2CC1c1cc(-c3ccc(C(F)(F)F)cc3)ccc12 (centres undefined) | – | – | – | Ki [4]: 0.046 µM
2.5 | Cc1ccccc1[C@@H]1C[C@H](O)Cc2ccc3ccccc3c2N1 | 41.6 | 36.1 | 36.2 | –
11.3 | Cc1ccc([C@@H]2C[C@H]3Cc4ccc5ccccc5c4N2O3)s1 | > 977 | 498 | 10.9 | –
– | O=C1Cc2cnn(-c3cc(Cl)cc(Cl)c3)c2-c2cc(Br)ccc2N1 | – | – | – | IC50 (HeLa): 1.32 µM
– | O=C(NO)c1ccc(CN2c3ccccc3SC[C@H]3CCCCC[C@H]32)cc1 | – | – | – | IC50 [1]: 0.03 µM; IC50 (Histone deacetylase 5): > 30 µM; IC50 (Histone deacetylase 3): > 30 µM; IC50 (Histone deacetylase 11): 1.2 µM; IC50 (Histone deacetylase 8): 6.7 µM; IC50 (Histone deacetylase 4): > 30 µM; IC50 [5]: > 30 µM; IC50 (Histone deacetylase 9): > 30 µM; IC50 (Histone deacetylase 1): > 30 µM
– | CN1CCN(c2ccc3c(c2)C2CC3CCN2C(=O)OCc2ccc(F)cc2)CC1 (centres undefined) | – | – | – | Ki [4]: 0.011 µM
11.1 | O[C@@H]1Cc2cc(Br)c3ccccc3c2N[C@H](c2ccccc2Cl)C1 | 11.1 | 16 | 8.9 | –
– | CCN1CCN(c2ccc3c(c2)C2CCN(C(=O)OCc4ccccc4)C3C2)CC1 (centres undefined) | – | – | – | Ki [4]: 0.116 µM
8.6 | O=[N+]([O-])c1ccc([C@@H]2C[C@H]3Cc4ccc5ccccc5c4N2O3)cc1 | > 903 | > 903 | 5 | –
9.6 | Cc1ccc([C@@H]2C[C@H]3Cc4ccc5ccccc5c4N2O3)o1 | 22.5 | 94.5 | 15.4 | –
7.1 | Cc1ccccc1[C@@H]1C[C@H](O)Cc2cc(Br)c3ccccc3c2N1 | 7.1 | 113 | 7.7 | –
8.6 | O=[N+]([O-])c1ccc([C@@H]2C[C@H]3Cc4ccc5ccccc5c4N2O3)o1 | 931 | 85.4 | 13.9 | –
6.3 | O[C@@H]1Cc2cc(Br)c3ccccc3c2N[C@H](c2cccc(Cl)c2)C1 | 45.1 | 10 | 48.2 | –
12.2 | O[C@@H]1Cc2cc(Br)c3ccccc3c2N[C@H](c2ccccc2)C1 | 24 | 25.3 | 617 | –
– | C[C@@H]1[C@H](O)[C@@H](C)/C=C/C=C/C=C/C=C/C=C/C=C/C=C/[C@H](O[C@@H]2O[C@H](C)[C@@H](O)[C@H](N)[C@@H]2O)C[C@@H]2O[C@](O)(C[C@@H](O)C[C@@H](O)[C@H](O)CC[C@@H](O)C[C@@H](O)CC(=O)O[C@H]1C)C[C@H](O)[C@H]2C(=O)O [AMPHOTERICIN B] | – | – | 0.01 | –
– | O=C1Cc2c([nH]c3ccc(Br)cc23)-c2ccccc2N1 [KENPAULLONE] | – | – | – | IC50 (HeLa): > 2 µM
– | CC1CS(=O)(=O)CCN1/N=C/c1ccc([N+](=O)[O-])o1 (centres undefined) [NIFURTIMOX] | – | 67.5 | – | –
– | COC(=O)Nc1nc2cc(C(=O)c3cccs3)ccc2[nH]1 [NOCODAZOLE] | – | – | – | IC50 (HeLa): > 2 µM
